Laboratory results published in US20220213052A1, “INHIBITORS OF RNA-BINDING PROTEINS, COMPOSITIONS THEREOF, AND THERAPEUTIC USES THEROF” (The University of North Carolina at Chapel Hill, priority 2019, published 2022).
Counter-ions that a name gives are not always drawn. Like-named read-outs stand apart in the source and are kept apart here.

Tests used:
Musashi 2 (Msi2) = Musashi 2 (Msi2) (Homo sapiens, UniProt Q96DH6); assay: Msi2 FP assay; format: binding
Method: (§1) With the FP assay of HuR-Msi1ARE binding, the inhibition of the HuR-Msi1ARE interaction by various compounds of the present technology was assessed. Similar FP assays for Musashi 2 (Msi2) and for RNA-binding protein Lin-28 homolog B (LIN28B) were also performed on various compounds of the present technology. The results of such assays for HuR are provided in Table 1 alongside the compound structures as well as ID numbers for ease of reference; the results of such assays for Msi1, Msi2, and LIN28B are provided in Table 2.

[1] = target: T1, full-length human HuR protein (Homo sapiens, UniProt Q15717); assay: FP assay of HuR-Msi1 ARE binding inhibition; conditions: HuR-Msi1 ARE interaction; read-out: HuR Ki via FP assay
T1 construct: full-length human HuR protein was produced by the KU COBRE-PSF Protein Purification Group; made in house
T1 sequence (Q15717 whole entry): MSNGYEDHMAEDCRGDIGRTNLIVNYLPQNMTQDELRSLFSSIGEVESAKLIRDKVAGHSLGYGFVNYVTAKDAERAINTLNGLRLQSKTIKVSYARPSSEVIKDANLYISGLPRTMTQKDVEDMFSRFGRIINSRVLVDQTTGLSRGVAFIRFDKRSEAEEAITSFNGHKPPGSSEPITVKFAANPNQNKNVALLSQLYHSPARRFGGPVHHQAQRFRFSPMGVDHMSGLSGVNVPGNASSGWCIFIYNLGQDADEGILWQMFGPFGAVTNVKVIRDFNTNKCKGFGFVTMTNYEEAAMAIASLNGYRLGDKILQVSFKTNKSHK
Excerpt: A fluorescence polarization (FP)-based binding assay was utilized to assess the inhibition of HuR protein interaction with the ARE site of Msi1 mRNA (“HuR-Msi1^ARE”) by compounds of interest. Briefly, full-length human HuR protein was produced by the KU COBRE-PSF Protein Purification Group and Bcl2, Msi1 and XIAP mRNA sequences (16 nt) were designed based on literature precedent^23,24,31,32. Fluorescein labeled RNAs were purchased from Dharmacon with the following sequences: Msi1 RNA: 5′-[…]-3′-fluorescein; Bcl-2 RNA: 5′-[…]-3′-fluorescein; XIAP RNA: 5′-[…] UGUC-3′-fluorescein, and a 16-nt degenerative RNA with 3′-fluorescein label was used as a negative control.
as §1

[2] = test system: triple-negative breast cancer cell line MDA-MB-231; assay: Cytotoxicity assay (WST-8), MDA-MB-231; format: cell-based; conditions: Homo sapiens, 96 h incubation
Method: The cytotoxicity of various compounds of the present technology in several cancer cell lines (pancreatic cancer cell line MIAPaCa-2, triple-negative breast cancer cell line MDA-MB-231, and colon cancer cell lines HCT116, HCT116 β/W, and RKO) was assessed by a cytotoxicity assay. Cells were seeded in 96-well culture plates (3,000-5,000 cells/well) and treated with titrated compounds in triplicate. After 96 h incubation, cell growth medium was removed and proliferation reagent WST-8 (Sigma) was added to each well and incubated at 37° C. for 1-3 h. Absorbance was then measured with a plate reader at 450 nm with correction at 650 nm. The results were expressed as the percentage of absorbance of treated wells versus that of vehicle control. IC50, the drug concentration causing 50% growth inhibition, was calculated via sigmoid curve fitting using GraphPad Prism 5.0. The results for those compounds tested against MIAPaCa-2 and MDA-MB-231 are provided in Table 1; the results for those compounds tested against colon cancer cell lines HCT116, HCT116 β/W, and RKO are provided in Table 3.

Msi1 = Msi1 (Homo sapiens, UniProt O43347); assay: Msi1 FP assay; format: binding
Sequence of Msi1 (O43347 whole entry, species assumed): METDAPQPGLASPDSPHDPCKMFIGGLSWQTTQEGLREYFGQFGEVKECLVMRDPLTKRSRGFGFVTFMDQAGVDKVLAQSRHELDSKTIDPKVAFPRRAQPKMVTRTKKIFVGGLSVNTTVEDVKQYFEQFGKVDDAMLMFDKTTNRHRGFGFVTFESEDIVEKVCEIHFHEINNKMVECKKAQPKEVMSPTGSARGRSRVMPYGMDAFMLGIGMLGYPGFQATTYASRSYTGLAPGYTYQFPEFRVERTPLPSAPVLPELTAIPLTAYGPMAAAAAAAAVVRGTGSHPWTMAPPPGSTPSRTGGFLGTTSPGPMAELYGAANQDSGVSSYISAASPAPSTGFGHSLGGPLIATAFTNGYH
Method: as §1

[3] = target: T2, RNA-binding protein Lin-28 homolog B (LIN28B) (Homo sapiens, UniProt Q6ZN17); assay: LIN28B FP assay
T2 sequence (Q6ZN17 1-250): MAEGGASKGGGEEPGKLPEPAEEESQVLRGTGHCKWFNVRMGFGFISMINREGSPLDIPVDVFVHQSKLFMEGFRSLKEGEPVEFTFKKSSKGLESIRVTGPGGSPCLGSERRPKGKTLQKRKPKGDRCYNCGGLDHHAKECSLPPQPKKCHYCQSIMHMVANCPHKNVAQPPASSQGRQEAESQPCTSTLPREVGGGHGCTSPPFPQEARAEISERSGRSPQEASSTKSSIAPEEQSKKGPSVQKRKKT
Method: as §1

[4] = cell without (RRM1) mark, read-out: Msi2 (Ki)
[5] = cell marked (RRM1), read-out: Msi2 (Ki) (RRM1)

Sequence of Musashi 2 (Msi2) (Q96DH6 whole entry, species assumed): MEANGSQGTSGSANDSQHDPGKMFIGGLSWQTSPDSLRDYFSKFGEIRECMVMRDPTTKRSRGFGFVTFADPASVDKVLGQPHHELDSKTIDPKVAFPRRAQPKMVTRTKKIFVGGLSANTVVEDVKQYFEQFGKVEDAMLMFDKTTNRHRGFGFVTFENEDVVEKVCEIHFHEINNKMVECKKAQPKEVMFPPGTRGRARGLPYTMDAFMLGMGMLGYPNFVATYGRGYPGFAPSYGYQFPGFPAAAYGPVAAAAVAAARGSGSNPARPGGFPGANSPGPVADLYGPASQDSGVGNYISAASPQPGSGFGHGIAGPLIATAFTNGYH

Compound	Ki (Musashi 2 (Msi2); [4]) [µM]	Ki [1] [µM]	IC50 [2] [µM]	Ki (Msi1) [µM]	Ki [3] [µM]	Ki (Musashi 2 (Msi2); [5]) [µM]
Cc1ccc(C(=O)Nc2ccc3sc(CCC(=O)NO)cc3c2)cc1 [KH-27, N-(2-(3-(hydroxyamino)-3-oxopropyl)benzo[b]thiophen-5-yl)-4-methylbenzamide]	> 20	3.72	9.34	> 20	> 20	
O=C(CCc1cc2cc(NC(=O)c3ccc(C(F)(F)F)cc3)ccc2s1)NO [KH-29, N-(2-(3-(hydroxyamino)-3-oxopropyl)benzo[b]thiophen-5-yl)-4-(trifluoromethyl)benzamide]	> 20	2.51	12.4	> 20	> 20	
CC(C)c1ccc(C(=O)Nc2ccc3sc(CCC(=O)O)cc3c2)cc1 [KH-37A, 3-(5-(4-Isopropylbenzamido)benzo[b]thiophen-2-yl)propanoic acid]	> 20	> 20	> 100	> 20	> 20	
CN(C)c1ccc(C(=O)Nc2ccc3[nH]c(C(=O)NO)cc3c2)cc1 [KH-57, 5-(4-(dimethylamino)benzamido)-N-hydroxy-1H-indole-2-carboxamide]	> 20	3.31	11.3		> 20	
CC(C)(C)c1cccc(C(=O)Nc2ccc3sc(CCC(=O)O)cc3c2)c1 [KH-30A, 3-(5-(3-(tert-butyl)benzamido)benzo[b]thiophen-2-yl)propanoic acid]	> 20	> 20	> 100	> 20	> 20	
CN(C)c1ccc(C(=O)Nc2ccc3sc(CCC(=O)NN)cc3c2)cc1 [KH-38E]	> 20	3.56	57.6	> 20	> 20	
Cc1ccc(C(=O)Nc2ccc3sc(CCC(=O)O)cc3c2)cc1 [KH-27A, 3-(5-(4-Methylbenzamido)benzo[b]thiophen-2-yl)propanoic acid]	> 20	> 20	> 100	> 20	> 20	
O=C(O)/C=C/c1cc2cc(NC(=O)c3ccc(C(F)(F)F)cc3)ccc2s1 [KH-32A, (E)-3-(5-(4-(Trifluoromethyl)benzamido)benzo[b]thiophen-2-yl)acrylic acid]		1.6	> 100	4.36	> 20	1.68
O=C(O)/C=C/c1cc2cc(NC(=O)c3ccccn3)ccc2s1 [KH-47A, (E)-3-(5-(picolinamido)benzo[b]thiophen-2-yl)acrylic acid hydrochloride]		1.81	18.2		> 20	6.8
O=C(/C=C/c1cc2cc(NC(=O)c3ccccn3)ccc2s1)NO [KH-47, (E)-N-(2-(3-(hydroxyamino)-3-oxoprop-1-en-1-yl)benzo[b]thiophen-5-yl) picolinamide hydrochloride]	> 20	4.44	3.11		> 20	
NNC(=O)CCc1cc2cc(NC(=O)c3ccc(C(F)(F)F)cc3)ccc2s1 [KH-29E]	> 20	3.32	71.2	> 20	> 20	
CN(C)c1ccc(C(=O)Nc2ccc3[nH]c(/C=C/C(=O)O)cc3c2)cc1 [KH-52A, (E)-3-(5-(4-(dimethylamino)benzamido)-1H-indol-2-yl)acrylic acid]		7.76	> 100		> 20	27.1
O=C(/C=C/c1cc2cc(NC(=O)C3CCCCC3)ccc2s1)NO [KH-46, (E)-N-(2-(3-(hydroxyamino)-3-oxoprop-1-en-1-yl)benzo[b]thiophen-5-yl) cyclohexanecarboxamide]	> 20	1.29	3.5		5.84	
CC(C)(C)c1ccc(C(=O)Nc2ccc3[nH]c(C(=O)NN)cc3c2)cc1 [KH-39E, 4-(tert-butyl)-N-(2-(hydrazinecarbonyl)-1H-indol-5-yl)benzamide]		1.67	13.5		> 20	
CC(C)(C)c1ccc(C(=O)Nc2ccc3sc(C(=O)O)cc3c2)cc1 [KH-43A, 5-(4-(tert-butyl)benzamido)benzo[b]thiophene-2-carboxylic acid]		5.08	90.5		> 20	5.25
CC(C)(C)c1ccc(C(=O)Nc2ccc3sc(C(=O)NO)cc3c2)cc1 [KH-43, 5-(4-(tert-butyl)benzamido)-N-hydroxybenzo[b]thiophene-2-carboxamide]		0.44	3.71		2.7	2.9
CC(C)(C)c1ccc(C(=O)Nc2ccc3[nH]c(/C=C/C(=O)NO)cc3c2)cc1 [KH-48, (E)-4-(tert-butyl)-N-(2-(3-(hydroxyamino)-3-oxoprop-1-en-1-yl)-1H-indol-5-yl)benzamide]		0.34	2.24		8.79	3.91
CN(C)c1ccc(C(=O)Nc2ccc3[nH]c(/C=C/C(=O)NO)cc3c2)cc1 [KH-52, (E)-4-(dimethylamino)-N-(2-(3-(hydroxyamino)-3-oxoprop-1-en-1-yl)-1H-indol-5-yl)benzamide]	> 20	0.69	8.91		> 20	
O=C(Nc1ccc2sc(C(=O)O)cc2c1)c1ccccn1 [KH-60A, 5-(Picolinamido)benzo[b]thiophene-2-carboxylic acid hydrochloride]		1.14	> 100		> 20	4.6
O=C(O)/C=C/c1cc2cc(NC(=O)C3CCCCC3)ccc2s1 [KH-46A, (E)-3-(5-(cyclohexanecarboxamido)benzo[b]thiophen-2-yl)acrylic acid]	> 20	4.27	> 100		> 20	
O=C(Nc1ccc2[nH]c(C(=O)O)cc2c1)c1ccccn1 [KH-56A, 5-(picolinamido)-1H-indole-2-carboxylic acid hydrochloride]	> 20	> 20	> 100		> 20	
CN(C)c1ccc(C(=O)Nc2ccc3sc(C(=O)O)cc3c2)cc1 [KH-58A, 5-(4-(Dimethylamino)benzamido)benzo[b]thiophene-2-carboxylic acid]		2.37	> 100		> 20	6.6
CC(C)(C)c1ccc(C(=O)Nc2ccc3[nH]c(/C=C/C(=O)O)cc3c2)cc1 [KH-48A, (E)-3-(5-(4-(tert-butyl)benzamido)-1H-indol-2-yl)acrylic acid]		3.35	> 100		> 20	4.8
CN(C)c1ccc(C(=O)Nc2ccc3[nH]c(C(=O)O)cc3c2)cc1 [KH-57A, 5-(4-(dimethylamino)benzamido)-1H-indole-2-carboxylic acid]		0.78	100		> 20	2.1
O=C(O)CCc1cc2cc(NC(=O)c3ccc(F)cc3)ccc2s1 [KH-28A, 3-(5-(4-Fluorobenzamido)benzo[b]thiophen-2-yl)propanoic acid]	> 20	> 20		> 20	> 20	
O=C(O)/C=C/c1cc2cc(NC(=O)c3ccc(F)cc3)ccc2s1 [KH-23A, (E)-3-(5-(4-Fluorobenzamido)benzo[b]thiophen-2-yl)acrylic acid]	> 20	> 20		> 20	> 20	
O=C(Nc1ccc2sc(C(=O)NO)cc2c1)c1ccccn1 [KH-60, N-(2-(hydroxycarbamoyl)benzo[b]thiophen-5-yl)picolinamide]	> 20	3.23	4.43		> 20	
